# Read-outs that look alike come from different tables or passages of the source.
# What was measured:
# [1] = system: A549 human lung cancer cells; assay: sulforhodamine B (SRB) assay, surviving cell fraction; type: cell-based
# H1299 cells = assay: apoptosis by ApoAlert Annexin-V kit in H1299 cells; details: 1 μM, 48 h
# Protocol: (§3) (B) H1299, A549 or SAEC cells were treated with various types of small molecules (1 μM) for 48 h. Cell viability was assessed using ApoAlert Annexin-V kit. DMSO or cisplatin (40 μM) was used as a negative or positive control, respectively.
# A549 cells [2] = system: A549 cells
# A549 cells [3] = assay: apoptosis by ApoAlert Annexin-V kit in A549 cells; details: 1 μM, 48 h
# Protocol: as §3
# [4] = system: primary normal small airway epithelial cells (SAEC); assay: apoptosis by ApoAlert Annexin-V kit in normal small airway epithelial cells; details: 1 μM, 48 h
# Protocol: as §3
# [5] = system: A549 lung cancer xenografts; assay: TUNEL assay of apoptosis in xenograft tumor tissues; details: 50 mg/kg for 24 h
# Protocol: Apoptosis in tumor tissues was measured by TUNEL assay.
# Apoptosis in tumor tissues was analyzed by TUNEL assay.
# [6] = system: A549 lung cancer xenografts; assay: A549 subcutaneous lung tumor xenografts in nude mice
# Protocol: At day 6, tumors were removed and photographed. […] Tumor volume was estimated by caliper measurements, data are mean±s.e.m. […] Apoptosis in tumor tissues was measured by TUNEL assay.
# BAX Ser184 = assay: BAX phosphorylation in H157 cells transfected with WT, S184A or S184E BAX; type: cell-based, human; details: H157 cells expressing WT, 60 min
# Protocol: (§1) (A) A549 cells expressing endogenous BAX were metabolically labeled with ^32P-orthophosphoric acid and treated with nicotine for 60 min. BAX was immunoprecipitated by using an agarose-conjugated BAX antibody. Phosphorylation of BAX was determined by autoradiography. […] (C) A549 cells were treated with cisplatin (40 μM) in the absence or presence of nicotine (1 μM) for various times as indicated. Cell viability was analyzed for Annexin-V and PI binding by flow cytometry. […] Cells were metabolically labeled with ^32P-orthophosphoric acid and treated with nicotine for 60 min. Phosphorylated GFP-tagged BAX was analyzed by autoradiography. […] After 48 h, cells were treated with cisplatin (Cis) in the absence or presence of nicotine for 24 h. Cell viability was analyzed as in (C).
# (§2) To test whether BAX phosphorylation occurs in human lung cancer cells, A549 cells were metabolically labeled and treated with nicotine (1 μM) for 60 min. […] To test whether nicotine induces BAX phosphorylation at ser184, WT, S184A or S184E cDNA in the pcDNA3 mammalian expression vector was transfected into H157 cells.
# BAX = target: T1, BAX (Homo sapiens, UniProt Q07812); assay: BAX phosphorylation in 32P-labeled A549 cells (autoradiography); type: cell-based; details: nicotine 1 μM, 60 min
# T1 construct: A549 cells expressing endogenous BAX were metabolically labeled; endogenous in cells; host or cells: A549 cells
# Protocol: as §1, §2
# [7] = A549 cells, 48 h, SRB assay, read-out: IC50
# T1 sequence (Q07812 whole entry): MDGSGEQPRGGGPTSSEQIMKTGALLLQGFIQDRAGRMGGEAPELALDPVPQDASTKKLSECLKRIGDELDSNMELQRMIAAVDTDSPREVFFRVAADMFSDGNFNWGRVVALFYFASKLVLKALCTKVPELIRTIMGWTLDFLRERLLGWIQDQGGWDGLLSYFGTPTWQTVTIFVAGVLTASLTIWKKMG
structure (smiles),measurement,setting,value
"NCCOc1ncccc1C=C1c2ccccc2-c2ccc([N+](=O)[O-])cc21 [CYD-4-61, 2-[3-(2-Nitro-fluoren-9-ylidenemethyl)-pyridin-2-yloxy]-ethylamine]",IC50,"[1]; A549, 48 h",0.026 µM
O=[N+]([O-])c1ccc2c(c1)C(=Cc1ccccc1O)c1ccccc1-2 [SMBA1],apoptotic effect,H1299 cells,potent apoptotic effect
same,apoptotic cell death in combination with cisplatin,A549 cells [2]; combination with cisplatin,enhances apoptotic cell death
same,apoptotic effect,A549 cells [3],potent apoptotic effect
same,apoptotic effect on normal cells compared to H1299 or A549 cells,[4],significantly less apoptotic effect
same,apoptosis in tumor tissues (TUNEL),[5],resulted in apoptosis in tumor tissues
same,tolerability of treatment doses,"[6]; 25, 50 or 75 mg/kg i.p. q.d. for two weeks",well tolerated
same,effect on established tumor xenografts (tumor volume),"[6]; 25, 50 or 75 mg/kg i.p. q.d. for two weeks, preliminary results",significant regression of established lung cancer xenografts
same,"toxicities on liver, kidney and heart",[6]; doses of 50-75 mg/kg,"well tolerated without significant toxicities on liver, kidney and heart"
CN1CCCC1c1cccnc1 (stereo not drawn) [nicotine],survival of A549 cells following cisplatin treatment,"A549 cells [2]; cisplatin 40 μM, nicotine 1 μM",significantly prolongs survival of A549 cells
same,phosphorylation of WT and mutant BAX,BAX Ser184,induces phosphorylation of WT but not S184A or S184E mutant BAX
same,BAX phosphorylation,BAX,potently stimulates serine phosphorylation of BAX
"NCCOc1ccccc1C=C1c2ccccc2-c2ccc([N+](=O)[O-])cc21 [CYD-2-11, 2-[2-(2-Nitro-fluoren-9-ylidenemethyl)-phenoxy]-ethylamine]",IC50,[1]; [7],1.93 µM
"CC(=O)N1CCN(CCOc2ccccc2C=C2c3ccccc3-c3ccc([N+](=O)[O-])cc32)CC1 [CYD-2-17, 1-(4-{2-[2-(2-Nitro-fluoren-9-ylidenemethyl)-phenoxy]-ethyl}-piperazin-1-yl)-ethanone]",IC50,[1]; [7],5.08 µM
"O=[N+]([O-])c1ccc2c(c1)C(=Cc1ccccc1OC1CCNCC1)c1ccccc1-2 [CYD-2-13, 4-[2-(2-Nitro-fluoren-9-ylidenemethyl)-phenoxy]-piperidine]",IC50,[1]; [7],5.91 µM

# From US9040567B2, “BAX agonist, compositions, and methods related thereto” (Emory University, priority 2011, dated 2015)
